Source: patent US20250032488A1, “METHODS OF TREATMENT USING LOU064” (NOVARTIS AG, priority 2021, published 2025)

How the values were obtained:
[1] = Concentrations of LOU064 in blood, PCA study; assay type: in vivo, mice; conditions: BALB/c, mouse, whole blood, oral, 2.5 hours after second dose, low-dose IgE sensitization, Mean ± SD (n = 5)
Procedure: (§1) LOU064 was tested in a murine PCA model. The model used BALB/c mice aged 8-10 weeks of age. For passive sensitization with hapten-specific IgE, mice under isoflurane anesthesia were given an intradermal injection of 20 μl anti-DNP IgE in saline into the right ear and 20 μl of saline into the left ear. For FccR-specific PCA, mice were given a low dose of 3 ng anti-DNP IgE. For maximal PCA mice were given a high dose of 25 ng anti-DNP IgE. LOU064 was administered p.o. in a volume of 5 ml/kg body weight. A first dose was administered 4 hours after sensitization on the evening before challenge. The next morning, 2 hours prior to hapten challenge, mice were given a second oral dose of LOU064.
Mice were challenged with hapten 2 hours after the second dose by placing them into a heated chamber. Animals were then injected i.v. with 100 μg of the hapten DNP-HSA (dinitrophenyl-human serum albumin) in 200 μl of 2% Evans blue diluted in PBS. The mice were then returned to their cage for exactly 30 minutes. Thirty minutes later, animals were then anesthetized with isoflurane and bled retro-orbitally using EDTA coated blood collection tubes for analysis of compound exposure. The mice were then sacrificed by cervical dislocation. A 6 mm punch biopsy was taken from both the left and the right ear and placed into 100 μl of formalin. The skin biopsies were incubated at 80° C. overnight to extract the dye. Twenty-four hours later 80 μl of formalin solution were transferred to a clear flat bottom 96 well plate and the optical absorption was read at 620 nm. Analysis was performed by subtracting the left ear (saline) from the right ear (IgE) to determine how much dye was released into the skin tissue of the biopsy. Statistical significance was determined by ANOVA. Spleens were removed for BTK occupancy analysis.
Analysis of blood level: Blood samples were taken as denoted and compound measurement was performed. Blood samples were spiked with a structurally similar internal standard mixed with acetonitrile (4 volumes) and centrifuged at ˜ 4000 rpm (4° C.). Supernatant was then transferred into a microtiter plate. An aliquot of each sample was injected into an LC-MS/MS system for determination of concentrations of the parent molecule.
The concentrations of LOU064 present in mouse blood, 2.5 hours after the second compound dose are shown for the low-dose IgE sensitization in Table 1.

healthy atopic subjects = conditions: doses of greater than or equal to 100 mg qd, MAD, across all tests; cited from earlier work
BTK = target: T1, BTK (Homo sapiens, UniProt Q06187); test: Translational PK/PD model: simulated BTK occupancy in human spleen/tissues; conditions: from prediction model of spleen BTK occupancy and HED
T1 construct: simulate BTK occupancy in human spleen/tissues across a range of doses; from tissue; host or cells: human spleen/tissues (simulated, not sampled)
Description: The purpose of this analysis was to characterize the pharmacokinetics (PK) of LOU064 in healthy volunteers and to use a previously developed, translational target occupancy model to simulate BTK occupancy in human spleen/tissues across a range of doses and dosing regimen (B.I.D vs QD).
Pharmacokinetic data from a Phase I clinical study reported by Kaul et al. (2021) were used in the current analysis, including 102 patients.
A translational target occupancy model to simulate BTK occupancy in spleen/tissues was developed using a two-step approach.
In a first step, a population PK model was established to describe LOU064 PK data from Phase I clinical study reported by Kaul et al. (2021). In a second step, the parameter estimates from the population PK model were used in the BTK occupancy model to predict BTK occupancy in blood and spleen/tissues. Ultimately the BTK occupancy model was used to predict the BTK occupancy in spleen/tissues for different dosing regimens (QD, B.I.D) at different doses.

patients with CSU [2] = test: Phase 2b trial in CSU: efficacy; assay type: in vivo, human; conditions: 25 mg b.i.d. regimen, 12 weeks
Procedure: In a Phase 2b, randomized, double-blind, placebo-controlled trial evaluating the efficacy and safety of remibrutinib over 12 weeks in patients inadequately controlled by H1-antihistamines, with at least moderately active CSU, patients received remibrutinib 10 mg q.d. (once daily), 35 mg q.d., 100 mg q.d., 10 mg b.i.d. (twice daily), 25 mg b.i.d., 100 mg b.i.d., or placebo (1:1:1:1:1:1:1 ratio).

patients with CSU [3] = test: Phase 2b core study in CSU: safety; assay type: in vivo, human
BALB/c mice = test: Passive cutaneous anaphylaxis (PCA) in mice: skin edema; assay type: in vivo; conditions: doses as low as 3 mg/kg, two oral administrations
Procedure: as §1
Mice were challenged with hapten 2 hours after the second dose by placing them into a heated chamber. Animals were then injected i.v. with 100 μg of the hapten DNP-HSA (dinitrophenyl-human serum albumin) in 200 μl of 2% Evans blue diluted in PBS. The mice were then returned to their cage for exactly 30 minutes. Thirty minutes later, animals were then anesthetized with isoflurane and bled retro-orbitally using EDTA coated blood collection tubes for analysis of compound exposure. […] Twenty-four hours later 80 μl of formalin solution were transferred to a clear flat bottom 96 well plate and the optical absorption was read at 620 nm. […] Statistical significance was determined by ANOVA. […]

PBMC-derived mast cells = test: FcER-induced degranulation of PBMC-derived mast cells; assay type: cell-based; conditions: Homo sapiens, Mast cell; n=7 donors; read-out: IC50, degranulation of primary human PBMC-derived mast cells (β-tryptase)
Description: cells (PBMC)-derived mast cells Rationale and method: Primary human mast cells were derived from CD34-positive progenitor cells isolated from PBMC ((Neuberger, M.S. et al. (1985), Nature 314 (6008), pp 268-70. doi: 10.1038/314268a0). Blood from healthy volunteers was provided under informed consent and collected through the Novartis Tissue Donor Program in accordance with the Swiss Human Research Act and approval of the responsible ethic committee (Ethikkommission Nordwest-und Zentralschweiz). Briefly, CD34-positive cells were isolated from peripheral blood by positive selection and cultured in medium containing SCF, IL-6 and IL-3. After a 6 week differentiation culture, mast cells were harvested and characterized phenotypically for expression of c-Kit (CD117) and FcERI. The degranulation is based on NIP haptenized BSA and the NIP-specific chimeric IgE antibody JW8 (described in RD-2013-00412). The mast cells were sensitized with JW8 IgE antibody and then incubated with serial compound dilutions for 30 minutes at 37° C. Then degranulation was triggered by adding haptenized NIP-BSA to crosslink the FcER. After one hour, supernatants were collected and analyzed for β-tryptase levels.

[4] = Core study, Any dose, N = 267, listed as remibrutinib

T1 sequence (Q06187 whole entry): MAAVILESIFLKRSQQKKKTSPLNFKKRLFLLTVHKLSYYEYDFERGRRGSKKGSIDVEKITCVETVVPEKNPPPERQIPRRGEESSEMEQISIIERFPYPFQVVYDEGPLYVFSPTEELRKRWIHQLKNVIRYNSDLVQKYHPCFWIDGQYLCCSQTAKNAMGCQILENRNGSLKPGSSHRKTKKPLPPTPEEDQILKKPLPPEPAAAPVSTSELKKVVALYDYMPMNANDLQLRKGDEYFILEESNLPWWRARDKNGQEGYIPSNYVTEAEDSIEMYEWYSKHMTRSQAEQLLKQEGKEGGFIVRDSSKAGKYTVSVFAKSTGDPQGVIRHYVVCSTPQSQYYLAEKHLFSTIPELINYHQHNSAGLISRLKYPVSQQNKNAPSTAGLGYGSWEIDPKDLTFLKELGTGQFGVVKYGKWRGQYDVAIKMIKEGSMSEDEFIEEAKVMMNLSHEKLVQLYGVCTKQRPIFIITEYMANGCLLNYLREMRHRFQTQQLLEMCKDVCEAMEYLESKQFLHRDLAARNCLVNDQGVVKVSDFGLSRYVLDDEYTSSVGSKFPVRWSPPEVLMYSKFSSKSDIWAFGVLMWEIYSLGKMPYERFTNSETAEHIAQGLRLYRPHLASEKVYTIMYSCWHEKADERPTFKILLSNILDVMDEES

C=CC(=O)N(C)CCOc1c(N)ncnc1-c1cc(F)cc(NC(=O)c2ccc(C3CC3)cc2F)c1C [LOU064, N-(3-(6-amino-5-(2-(N-methylacrylamido)ethoxy)pyrimidin-4-yl)-5-fluoro-2-methylphenyl)-4-cyclopropyl-2-fluorobenzamide]
concentration at 2.5 h ([1]; 3 mg/Kg p.o.): 7 ± 2 nM | concentration at 2.5 h ([1]; 10 mg/Kg p.o.): 35 ± 14 nM | concentration at 2.5 h ([1]; 30 mg/Kg p.o.): 111 ± 56 nM | concentration at 2.5 h ([1]; 100 mg/Kg p.o.): 488 ± 371 nM | Average decrease in wheal size (SPT) (healthy atopic subjects): 3 mm | Minimal human effective dose (BTK): 25 mg b.i.d | Efficacy in CSU (patients with CSU [2]): particularly effective | Patients with newly occurring ALT>5xULN (patients with CSU [3]; CS, normalised on treatment): 1 patient | Patients with ≥1 AE (patients with CSU [3]; Core study, 10 mg b.i.d., N = 44): 21 n | Patients with ≥1 AE (patients with CSU [3]; Core study, 10 mg q.d., N = 44): 29 n | Patients with ≥1 AE (patients with CSU [3]; Core study, 25 mg b.i.d., N = 43): 26 n | Patients with ≥1 AE (patients with CSU [3]; Core study, 35 mg q.d., N = 44): 23 n | Patients with ≥1 AE (patients with CSU [3]; Core study, 100 mg b.i.d., N = 45): 29 n | Patients with ≥1 AE (patients with CSU [3]; Core study, 100 mg q.d., N = 47): 27 n | Headache (AEs by PT) (patients with CSU [3]; [4]): 9.7% | Infections and infestations (AEs by primary system organ class) (patients with CSU [3]; [4]): 24.0% | Skin and subcutaneous tissue disorders (AEs by primary system organ class) (patients with CSU [3]; [4]): 16.9% | Inhibition of the anaphylactic response (PCA) (BALB/c mice): near complete inhibition | IC50 (PBMC-derived mast cells): 5.7 nM
